Patent US20080081781A1, “Methods and compositions for the treatment of metabolic syndrome” (priority 2004, published 2008)

Legend:
[1] = Toxicity analysis (LD50) in rats; details: rat, in vivo
Experimental: Rats and mice were administered berberine through a variety of techniques, including orally, through subcutaneous injection, peritoneal injection and intravenous injection.

[2] = system: hyperlipidemia Chinese hamster; test: Lipid lowering effects of berberine in hyperlipidemia Chinese hamster; format: in vivo; details: for LDL reduced by: after the 10 day treatment; for LDL Protein / Triglycerides / Cholesterol: serum, ten days; for LDL Protein: saline control 2.8 ± 0.9; for Triglycerides: saline control 3.6 ± 0.4; for Cholesterol: saline control 6.4 ± 1.0
Experimental: Two weeks prior to treatment, female Chinese hamsters purchased from the National Institute of Vaccine and Serum research (Beijing, China) were switched to a high fat and cholesterol diet (10% lard, 10% egg yolk powder and 1% cholesterol). After two weeks, groups of 14 hamsters were given either 10 mg/kg/day of berberine through peritoneal injection, 20 mg/kg/day of berberine through peritoneal injection, 50 mg/kg/day, 100 mg/kg/day of berberine orally or saline for ten days. Serum cholesterol, triglyceride and LDL levels were measured after 4 h fasting before, during and after the course of the treatment. Four hours after the course of the treatment, the animals were sacrificed and their livers removed for analysis.

in vitro = in vitro ADME; details: rabbit
Experimental: The rabbit blood protein binding rate was measured by in vitro dialysis at a rate of 38±3% (XD±S, n=6).

InsR mRNA = InsR mRNA expression in HepG2 cells (real time RT-PCR, slot blot); format: cell-based, human; details: HepG2, 2.5 μg/ml for 8 hours
Experimental: Cells from the human hepatoma cell line HepG2 were incubated with 0, 1, 2.5, 5, 10 or 15 μg/ml of berberine respectively for eight hours. Total cellular RNA was isolated using the Ultraspec RNA lysis solution (Biotecxs Laboratory, Houston, Tex.) following the vender's protocols. […] of the RNA sample was transferred to nitrocellulose membrane via a slot-blot apparatus (Schleicher & Schuell, Keene, N.H.). The blots were fixed by baking at 80° C. for 2 h, followed by hybridization to a 0.89-kb long, 32P-labelled human InsR cDNA probe. The same membranes were then stripped and re-hybridized to a human ACTB probe as internal control. Quantitative real time RT-PCR assays were also done. For the RT-PCR assay, total cellular RNA was reverse-transcribed into cDNA using the Reverse Transcription System (Promega, Madison, Wis.). Quantitative real-time PCR were performed with these cDNA using the Applied Biosystems 7500 Real-Time PCR System and TaqMan® Universal PCR Master Mix (Applied Biosystems, Foster City, Calif.). […] 2.5 μl of cDNA sample, 12.5 μl of Universal PCR Master Mix, and 1.25 μl of TaqMan® Gene Expression Assay reagent were mixed in a 25 μl reaction system, and the comparative CT method was used in relative gene quantification using the TaqMan® SDS analysis software. […]

clinical = details: human, in vivo, po, 300 mg
Experimental: Healthy human volunteers were given 300 mg of berberine orally. […] The blood concentration curve was analyzed by 3P87 Pharmacokinetics Software program (Chinese Pharmacological Association, China).

LDLR mRNA = test: Screen of 700 compounds from Chinese herbs for LDLR mRNA in HepG2 cells (semi-quantitative RT-PCR); format: cell-based, human; details: HepG2, 24 hours
Experimental: In exemplary experiments, cells from a human hepatoma-derived cell line, HepG2, were treated for 24 hours with 700 compounds isolated from Chinese herbs. RNA was then isolated from the cells and analysis of LDLR mRNA was determined using semi-quantitative RT-PCR assays. […] Treating HepG2 cells cultured in medium containing 0.5% lipoprotein-depleted fetal bovine serum or serum supplemented with sterols and berberine caused time dependent increases in the expression of LDLR mRNA.

[3] = 10 mg/kg/day peritoneal injection
[4] = 20 mg/kg/day peritoneal injection

Work on `COc1ccc2cc3[n+](cc2c1OC)CCc1cc2c(cc1-3)OCO2` [berberine] yielded an LD50 ([1]; intraperitoneal, peritoneal injection) of 138 to 146 mg/kg, an LD50 ([1]; intravenous injection) of 46.2 to 63.3 mg/kg and an LD50 ([1]; oral dose) of over 15000 mg/kg. For the same compound, the LD50 ([1]; sc, subcutaneous injection) was 7970 to 10700 mg/kg, the “LDL reduced by” value ([2]; 50 mg/kg/day) was 26% and the “LDL reduced by” value ([2]; 100 mg/kg/day) was 42%. The “LDL Protein” value [2, 3] was 1.6 ± 0.3, the Triglycerides [2, 3] was 2.6 ± 0.3 and the Cholesterol [2, 3] was 4.1 ± 0.7. The “LDL Protein” value [2, 4] was 0.9 ± 0.1, the Triglycerides [2, 4] was 1.7 ± 0.5 and the Cholesterol [2, 4] was 3.2 ± 0.5. The “LDL Protein” value ([2]; 50 mg/kg/day (orally)) was 2.07 ± 0.9, the Cholesterol ([2]; 50 mg/kg/day (orally)) was 3.5 ± 0.5 and the “LDL Protein” value ([2]; 100 mg/kg/day oral) was 1.2 ± 0.2. It also gave a Triglycerides ([2]; 100 mg/kg/day oral) of 1.9 ± 0.4, a Cholesterol ([2]; 100 mg/kg/day oral) of 3.8 ± 0.7 and a fraction unbound (in vitro) of 0.62. For the same compound, the “increase of InsR mRNA” value (InsR mRNA) was 40%, the AUC (clinical) was 2800 ng·h/mL and the Cmax (clinical) was 395 ng/mL. The “clear rate CL” value (clinical) was 130.5 L/h, the half-life (clinical) was 2.91 h and the “LDLR expression among 700 compounds tested” value (LDLR mRNA) was “greatest increase in LDLR expression”.
